# Measured values taken from patent US7829723B2, “Polymorphic forms of (S)-1-cyanobutan-2-yl (S)-1-(3-3-(3-methoxy-4-(oxazol-5-yl)phenyl)uriedo)phenyl)ethylcarbamate” (Vertex Pharmaceuticals Incorporated, priority 2005, dated 2010).
# Tests used:
# [1] = Solubility of Compound 1 at elevated temperatures in various solvents; type: physicochemical; settings: organic solvent or mixture
# [2] = Solubility of Compound 1 at room temperature in various solvents and solvent mixtures; type: physicochemical
structure (smiles),measurement,setting,value
"CC[C@@H](CC#N)OC(=O)N[C@@H](C)c1cccc(NC(=O)Nc2ccc(-c3cnco3)c(OC)c2)c1 [Compound 1, (S)-1-cyanobutan-2-yl (S)-1-(3-(3-(3-methoxy-4-(oxazol-5-yl)phenyl)ureido)phenyl)ethylcarbamate]",solubility,"[1]; solvent Acetone, 40° C.",61 mg/mL
same,solubility,"[1]; solvent Acetone, Boiling point (56° C.)",67 mg/mL
same,solubility,"[1]; solvent MeOH, 40° C.",33 mg/mL
same,solubility,"[1]; solvent MeOH, 50° C.",36 mg/mL
same,solubility,"[1]; solvent MeOH, Boiling point (65° C.)",92 mg/mL
same,solubility,"[1]; solvent THF, 40° C.",75 mg/mL
same,solubility,"[1]; solvent THF, Boiling point (65° C.)",115 mg/mL
same,solubility,"[1]; solvent Toluene, 50° C.",< 2.3 mg/mL
same,solubility,"[1]; solvent t-Butyl methyl ether (MTBE), 45° C.",< 10.4 mg/mL
same,solubility,"[2]; aqueous with cosolvent or surfactant or cyclodextrin, solvent Acetone:H2O 20:80",< 8.9 mg/mL
same,solubility,"[2]; organic solvent or mixture, solvent 2-Butanone (MEK)",10.5 mg/mL
same,solubility,"[2]; organic solvent or mixture, solvent Acetone",11 mg/mL
same,solubility,"[2]; organic solvent or mixture, solvent Acetonitrile",1.6 mg/mL
same,solubility,"[2]; organic solvent or mixture, solvent EtOH",1.6 mg/mL
same,solubility,"[2]; organic solvent or mixture, solvent THF",35 mg/mL
